{
  "source": "paper PMC10937676",
  "about": "“Targeting the NTSR2/TrkB oncogenic pathway in chronic lymphocytic leukemia” (Scientific Reports, 2024)",
  "key": {"MEC-1 cell line": {"tested_on": "MEC-1 cell line", "test": "Cytotoxicity on the MEC-1 cell line (Incucyte, Cytotox Dye)", "assay_type": "cell-based", "conditions": "0 to 100 µM peptide, fluorescence monitored for 24 h, read-out: IC50, cell death", "description": "The cytotoxicity of the peptides was initially assessed on the MEC-1 cell line to determine their IC50.\nFigure 3 Cytotoxicity of the peptide in vitro and ex vivo. (A) Determination of the cytotoxicity of Pep and TAT-Pep peptides on the MEC-1 cell line. Increased concentrations (0 to 100 µM) of Pep and TAT-Pep were incubated with the MEC-1 cell line, and the number of dead cells was measured using the Incucyte live-cell imaging device with Cytotox Dye (green). Fluorescence was monitored for 24 h. (B) Measurement of the cytotoxicity of the TAT-Pep peptide on CLL-B cells from patients. Increased concentrations (0 to 30 µM) of TAT-Pep were incubated with CLL-B cells, and the number of dead cells was measured using the Incucyte live-cell imaging device with Cytotox Dye (green). Fluorescence was monitored for 48 h. […] In all analyses, the ‘Green Object Count/Phase Object Count’ ratio was determined using the Incucyte analysis software to obtain the percentage of dead cells. The area under the curve for each condition was then calculated, and they were compared using a t-test. […]\nCell viability and survival were monitored using the IncucyteS3 system (Sartorius), a live-cell imaging device enabling the tracking of fluorescence over set periods of time[41],[42]. […] The area under the curve for each condition was then calculated, and they were compared using a t-test. […]"}, "BCL-XL": {"tested_on": "BCL-XL", "test": "Immunoblot, relative level of anti-apoptotic protein BCL-XL in CLL-B cells", "assay_type": "cell-based, human", "conditions": "CLL-B cells from 10 patients, overnight, 10 µM", "excerpt": "Concerning anti-apoptotic protein expression, a decrease in anti-apoptotic proteins BCL-2; BCL-XL and MCL-1 was observed after TAT-Pep treatment of CLL-B cells, possibly as a consequence of the SRC kinase inactivation (Fig. 6A–C). To unveil whether the regulation mechanism behind the observed modifications was transcriptional or post-transcriptional, we evaluated the mRNA levels of all three anti-apoptotic proteins following peptide treatment. […] To further underline that the induction of cell death following TAT-Pep treatment involved apoptosis regulation pathways, we used B cells from six CLL patients and stained them with Annexin V in both TAT-Pep treated and untreated conditions. […]\nFigure 6 The peptide lowers anti-apoptotic proteins levels. […] CLL-B cells from 12 patients were incubated overnight, with or without 10 µM of TAT-Pep, subsequently RNA was extracted from cell lysates and mRNA levels of BCL-2 (D); BCL-XL (E) and MCL-1 (F) were evaluated using RTqPCR; 18S was used as a housekeeping gene. (G) Increased concentrations (0 to 30 µM) of TAT-Pep were incubated with 20,000 CLL-B, and the number of Annexin V-positive cells was measured using the Incucyte live-cell imaging device. Fluorescence was monitored for 48 h. […] The ‘Green Object Count/Phase Object Count’ ratio was determined using the Incucyte analysis software to obtain the percentage of apoptotic cells. […]"}, "CLL-B cells": {"tested_on": "CLL-B cells", "test": "Apoptosis of CLL-B cells, Annexin V staining (Incucyte)", "assay_type": "cell-based, human", "conditions": "20,000 CLL-B cells, 6 patients, technical triplicates, Annexin V Dye, 48 h, area under the curve", "excerpt": "Concerning anti-apoptotic protein expression, a decrease in anti-apoptotic proteins BCL-2; BCL-XL and MCL-1 was observed after TAT-Pep treatment of CLL-B cells, possibly as a consequence of the SRC kinase inactivation (Fig. 6A–C). To unveil whether the regulation mechanism behind the observed modifications was transcriptional or post-transcriptional, we evaluated the mRNA levels of all three anti-apoptotic proteins following peptide treatment. […] To further underline that the induction of cell death following TAT-Pep treatment involved apoptosis regulation pathways, we used B cells from six CLL patients and stained them with Annexin V in both TAT-Pep treated and untreated conditions. As shown on Fig. 6G, TAT-Pep treatment did induce apoptosis in CLL-B cells. […] However, at 5 µM, there was already a 1.9-fold increase in cell death compared to the control. It progressively rose to a 2.5-fold increase and a 3.6-fold increase for 10 µM and 30 µM, respectively.\nFigure 6 The peptide lowers anti-apoptotic proteins levels. CLL-B cells from 10 patients were incubated overnight, with or without 10 µM of TAT-Pep. Whole cell lysates were then prepared, and 10 µg of proteins were immunoblotted to assess the following parameters. (A) Relative level of the anti-apoptotic protein BCL-2 in B-CLL. (B) Relative level of the anti-apoptotic protein BCL-XL and (C) relative level of the anti-apoptotic protein MCL-1. CLL-B samples from ten different patients were utilized for the analysis. CLL-B cells from 12 patients were incubated overnight, with or without 10 µM of TAT-Pep, subsequently RNA was extracted from cell lysates and mRNA levels of BCL-2 (D); BCL-XL (E) and MCL-1 (F) were evaluated using RTqPCR; 18S was used as a housekeeping gene. (G) Increased concentrations (0 to 30 µM) of TAT-Pep were incubated with 20,000 CLL-B, and the number of Annexin V-positive cells was measured using the Incucyte live-cell imaging device. Fluorescence was monitored for 48 h. […] The ‘Green Object Count/Phase Object Count’ ratio was determined using the Incucyte analysis software to obtain the percentage of apoptotic cells. The area under the curve for each condition was then calculated, and they were compared using a t-test.\nCell viability and survival were monitored using the IncucyteS3 system (Sartorius), a live-cell imaging device enabling the tracking of fluorescence over set periods of time[41],[42]. […] In all analyses, the ‘Green Object Count/Phase Object Count’ ratio was determined using the Incucyte analysis software to obtain the percentage of dead cells. The area under the curve for each condition was then calculated, and they were compared using a t-test. To evaluate proliferation, phase confluence was determined and normalized with t = 0 h using the Incucyte analysis software."}},
  "data": [
    {"sequence": "GRKKRRQRRRPPQNAVSSSFRKLFLEAVSSLCGEHHPMKRLPPKPQSPTLMDTASGFGDPPETRT [TAT-Pep]", "values": [
      {"measurement": "IC50", "setting": "MEC-1 cell line", "result": 10, "unit": "µM"},
      {"measurement": "level of anti-apoptotic protein BCL-XL (in words)", "setting": "BCL-XL", "result": "decrease"},
      {"measurement": "Annexin V-positive cells compared to the control (in words)", "setting": "CLL-B cells; 2.5 µM", "result": "no significant cytotoxicity was observed"},
      {"measurement": "increase in cell death (Annexin V-positive cells) compared to the control", "setting": "CLL-B cells; 5 µM", "result": 1.9, "unit": "fold"},
      {"measurement": "increase in cell death (Annexin V-positive cells) compared to the control", "setting": "CLL-B cells; 10 µM", "result": 2.5, "unit": "fold"},
      {"measurement": "increase in cell death (Annexin V-positive cells) compared to the control", "setting": "CLL-B cells; 30 µM", "result": 3.6, "unit": "fold"}
    ]}
  ]
}
